Test results published in paper PMC11984407, “A natural small molecule isoginkgetin alleviates hypercholesterolemia and atherosclerosis by targeting ACLY” (Theranostics, 2025).

Key:
recombinant ACLY protein = molecular target: T1, recombinant ACLY protein (Homo sapiens, UniProt P53396); assay: ACLY activity assay in vitro (cell-free ADP-Glo assay); type: biochemical; conditions: read-out: ACLY enzyme activity IC50
T1 sequence (P53396 1-1101): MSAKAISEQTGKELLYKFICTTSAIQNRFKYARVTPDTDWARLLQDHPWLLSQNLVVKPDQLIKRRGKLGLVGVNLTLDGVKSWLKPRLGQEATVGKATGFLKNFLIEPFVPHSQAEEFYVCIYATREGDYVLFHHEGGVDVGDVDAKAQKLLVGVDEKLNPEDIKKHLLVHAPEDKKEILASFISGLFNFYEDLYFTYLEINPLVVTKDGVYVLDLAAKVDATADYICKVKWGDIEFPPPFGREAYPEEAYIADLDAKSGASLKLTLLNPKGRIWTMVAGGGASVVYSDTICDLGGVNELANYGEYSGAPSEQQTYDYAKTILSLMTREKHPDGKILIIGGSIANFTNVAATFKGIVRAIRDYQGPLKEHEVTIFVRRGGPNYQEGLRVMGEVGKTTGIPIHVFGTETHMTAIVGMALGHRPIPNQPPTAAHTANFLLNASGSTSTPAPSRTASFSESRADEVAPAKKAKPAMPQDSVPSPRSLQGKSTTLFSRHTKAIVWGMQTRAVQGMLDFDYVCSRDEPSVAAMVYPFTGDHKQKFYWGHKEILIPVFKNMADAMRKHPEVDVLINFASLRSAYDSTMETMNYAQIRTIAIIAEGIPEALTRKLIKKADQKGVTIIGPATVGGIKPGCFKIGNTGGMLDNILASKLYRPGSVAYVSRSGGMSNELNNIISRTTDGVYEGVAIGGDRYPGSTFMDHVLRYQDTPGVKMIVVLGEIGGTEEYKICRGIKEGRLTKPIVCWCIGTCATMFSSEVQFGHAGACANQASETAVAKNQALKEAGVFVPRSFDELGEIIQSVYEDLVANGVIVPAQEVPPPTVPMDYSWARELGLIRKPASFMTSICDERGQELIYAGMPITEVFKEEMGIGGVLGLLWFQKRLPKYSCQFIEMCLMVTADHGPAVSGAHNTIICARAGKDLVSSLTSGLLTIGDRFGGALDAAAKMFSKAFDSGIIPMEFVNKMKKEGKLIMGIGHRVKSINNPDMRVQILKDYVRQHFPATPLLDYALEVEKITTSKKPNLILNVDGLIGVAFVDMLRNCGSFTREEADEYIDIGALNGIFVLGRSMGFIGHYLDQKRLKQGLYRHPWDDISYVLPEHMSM
Description: ACLY activity was assessed in a cell-free system using an ADP-Glo dependent assay, as previously described. Briefly, the reaction was conducted in a 384-well plate containing 2 µL of substrate (5 mmol/L ATP, 30 mmol/L citrate, 15 mmol/L CoA) in kinase buffer (40 mmol/L Tris base, 10 mmol/L MgCl2, 5 mmol/L DTT). The reaction was initiated by adding 20 nmol/L recombinant human ACLY protein and various concentrations of the compounds, followed by incubation for 30 min at 37 °C. During the reaction, ACLY converted ATP to ADP. ADP levels, which reflect ACLY activity, were quantified using the ADP-Glo assay kit (V9102, Promega, Madison, USA) in accordance with the manufacturer's instructions. The enzymatic activity curve was analyzed using the log (inhibitor) versus normalized response-variable slope function in GraphPad Prism.

[1] = tested on: LDLR and ACLY protein levels; assay: Western blot of LDLR and ACLY in Huh-7 cells; type: cell-based, human; conditions: Huh-7, various concentrations
Description: Western blotting was performed as previously described. In brief, whole-cell lysates from cultured cells and animal tissue were prepared using 1× sample buffer, followed by boiling at 95 °C for 10 min. Subsequently, SDS-PAGE was employed to separate the samples, which were then transferred onto a nitrocellulose membrane (Pall, NY, USA). Subsequently, the membrane was incubated in a blocking buffer for one h at room temperature. Following the removal of the blocking buffer, the blots were incubated with primary antibodies (1:1,000 dilution) at 4 °C overnight. The membrane was washed thrice for 10 min each, using 1× Tris-buffered saline with 0.1% Tween-20 (TBST). Subsequently, the membranes were incubated with IRDye® 680RD Goat anti-Mouse IgG (H + L) or IRDye® 800CW Goat anti-Rabbit IgG (H + L) (1:10,000 dilution, LI-COR, Lincoln, Nebraska, USA) at room temperature for 1 h. Visualization of the blots was carried out using the Li-COR CLx infrared imaging system. GAPDH (60004-1-Ig, Proteintech, Chicago, IL, USA), ACLY (67166-1-Ig, Proteintech, Chicago, IL, USA), LDLR (10785-1-AP, Proteintech, Chicago, IL, USA), β-Actin (66009-1-Ig, Proteintech, Chicago, IL, USA), AMPK (10929-2-AP, Proteintech, Chicago, IL, USA), p-AMPK^T172 (2535, Cell Signaling Technology, Danvers, MA, USA).

## COc1ccc(-c2cc(=O)c3c(O)cc(O)c(-c4cc(-c5cc(=O)c6c(O)cc(O)cc6o5)ccc4OC)c3o2)cc1 [ISOGK, Isoginkgetin]
Recombinant ACLY protein
  IC50: 5.46 ± 1.11 µM
[1]
  LDLR and ACLY protein levels: no significant change in the LDLR and ACLY protein levels
